Here are results for six compounds from US8450318B2 (priority 2007, dated 2013).

What is called CC50 is the concentration giving 50% cytotoxicity. One may read the EC50 as the concentration at which the effect is half-maximal. The term melting point denotes the temperature of the solid-liquid transition.

A short description of one data set: in vitro. Conditions: human, CEM cells.
The subject of the next data set is HIV-2. The experiment in a line: Antiretrovirus assay, HIV-2. Conditions: for EC50: Human immunodeficiency virus 2, read-out: EC50 HIV-2.
In data set [1] the test system is human corona (SARS) virus. The experiment in a line: microbe, parasite or virus in culture. The following applies: for EC50: Severe acute respiratory syndrome coronavirus, read-out: Human Corona virus EC50. It counts as cell-based.
Another data set has as its system Feline Corona virus. In words: Activity on feline corona virus in CRFK cells. It counts as cell-based.
Data set [2] concerns HIV-1. The experiment in a line: microbe, parasite or virus in culture. Conditions: Human immunodeficiency virus 1, CCRF-CEM, read-out: EC50 HIV-1.
In data set [3] the test system is Herpes simples virus-2 (G). The experiment in a line: Antiviral activity, Herpes simplex virus-2 (G). The data set is classed as cell-based. The following applies: Human alphaherpesvirus 2; Table 4, reference compounds.
A further data set relates to Para-influenza-3 virus. In words: Antiviral activity, Para-influenza-3 virus. It counts as cell-based. The following applies: Table 3, reference compounds.
In the next data set the test system is Vaccinia virus. In words: microbe, parasite or virus in culture. Conditions: Orthopoxvirus vaccinia, read-out: EC50 Vaccinia virus. It counts as cell-based.
In data set [4] the test system is Vesicular stomatitis virus. The experiment in a line: microbe, parasite or virus in culture. It counts as cell-based. Conditions: read-out: EC50 Vesicular stomatitis virus.
A further data set concerns Sindbis virus. In words: Antiviral activity, Sindbis virus. It counts as cell-based. The following applies: Table 3, reference compounds.
A further data set concerns Coxsackie virus B4. The experiment in a line: microbe, parasite or virus in culture. It counts as cell-based. Conditions: Table 3, reference compounds.
The test system of a further data set is Punta Toro virus. The experiment in a line: Antiviral activity, Punta Toro virus. The data set is classed as cell-based. Conditions: Table 3, reference compounds.
For data set [5], the system named is Herpes simplex virus-1 TK KOS-ACV^r. In words: Antiviral activity, Herpes simplex virus-1 TK KOS-ACVr. Conditions: Human alphaherpesvirus 1, read-out: EC50 Herpes simplex virus-1 TK KOS-ACV^r. It counts as cell-based.
The next data set concerns Reovirus-1. The experiment in a line: Antiviral activity, Reovirus-1. Conditions: Table 3, reference compounds. The data set is classed as cell-based.
The subject of data set [6] is Herpes simplex virus-1 (KOS). The experiment in a line: Antiviral activity, Herpes simplex virus-1 (KOS). The data set is classed as cell-based. Conditions: Human alphaherpesvirus 1; Table 4, reference compounds.
The subject of data set [7] is CRFK cells. Conditions: cytotoxicity, human corona virus test.
The next data set relates to Influenza A H1N1 subtype. In words: Anti-influenza activity in MDCK cells, Influenza A H1N1. The data set is classed as cell-based. Conditions: for EC50: Influenza A virus, reference compounds. The source says:
(§1) MDCK cells (Madin Darby canine kidney cells) have been used for the experiments shown in table 5 using standard procedures known in the art.

The subject of another data set is Influenza B. The experiment in a line: Anti-influenza activity in MDCK cells, Influenza B. The data set is classed as cell-based.
Data set [8] has as its system CRFK cells. Conditions: cytotoxicity, feline corona virus test.
For data set [9], the system named is HIV-1. Conditions: Table 1; CEM cells, prevention of syncytium formation by 50%, 4 to 5 days.
In a further data set the test system is Influenza A H3N2 subtype. The experiment in a line: Anti-influenza activity in MDCK cells, Influenza A H3N2. Conditions: for EC50: Influenza A virus, reference compounds. It counts as cell-based.
Excerpt: as §1

Another data set deals with CEM cells. The experiment in a line: Cytostatic/cytotoxic activity, inhibition of CEM cell proliferation. Conditions: Table 1.
The mark [10] stands for this setting: cell viability, formazan-based MTS assay.

Values after ≈ are worked out from the molar mass of the structure shown. Where two headings read alike, the source gives them in different places. Some results are limits rather than exact numbers.

Compound `CCc1c(CNc2cc(C)cc(C)n2)c(CC)c(CNc2cc(C)cc(C)n2)c(CC)c1CNc1cc(C)cc(C)n1` [Compound 3b, 1,3,5-Tris[(4,6-dimethyl-pyridin-2-yl)aminomethyl]-2,4,6-triethyl-benzene] yielded a melting point of 183 to 185 °C. Also, the CC50 in “in vitro” was 2.87 ± 0.23 µg/mL (≈ 5.08 µM). Further, in the data set with HIV-2, the EC50 is above 0.8 µg/mL. The EC50 in [1] stood at 8.6 ± 4.9 µg/mL (≈ 15.2 µM). For the same compound, the EC50 in the data set with Feline Corona virus worked out at 1.1 ± 0.6 µg/mL (≈ 1.95 µM). Moreover, the EC50 with HIV-1 [2] is above 0.8 µg/mL.

For the compound `O=c1[nH]c(=O)n([C@H]2C[C@H](O)[C@@H](CO)O2)cc1/C=C/Br` [Brivudin], the EC50 in data set [3] is 10 µM; with Para-influenza-3 virus, above 250 µM; in the data set with Vaccinia virus, 2 µM; in data set [4], above 250 µM; in the data set with Sindbis virus (Sindbis virus) it was above 250 µM; in the data set on Coxsackie virus B4 (Enterovirus B, B4), above 250 µM. Besides, the EC50 in the data set with Punta Toro virus (Punta Toro virus) was above 250 µM; in data set [5], 50 µM; in the data set with Reovirus-1 it was above 250 µM; in data set [6] it was 0.016 µM.

On to `CCc1c(CNc2ccc3ccc(C)nc3n2)c(CC)c(CNc2ccc3ccc(C)nc3n2)c(CC)c1CNc1ccc2ccc(C)nc2n1` [Compound 25], for which the “Human Corona virus CC50” value in the data set on CRFK cells [7] is above 100 µg/mL. The “EC50 Influenza A H1N1 subtype MTS” value in the data set with Influenza A H1N1 subtype (setting [10]) was above 4 µg/mL. Moreover, in the data set with Influenza A H1N1 subtype (visual scoring of the CPE), the “EC50 Influenza A H1N1 subtype visual CPE score” value is above 4 µg/mL. Moreover, the “EC50 Influenza B MTS” value in the data set with Influenza B (setting [10]) is above 4 µg/mL. In addition, the “EC50 Influenza B visual CPE score” value in the data set on Influenza B (visual scoring of the CPE) was above 4 µg/mL. Besides, the “Feline Corona virus CC50” value in the data set with CRFK cells [8] was 92 ± 9 µg/mL. In addition, the “EC50 HIV-1” value with HIV-1 [9] turned out to be 1.25 ± 0.35 µg/mL (≈ 1.85 µM). Moreover, in the data set with HIV-2 (Table 1), the “EC50 HIV-2” value is above 20 µg/mL. Moreover, the “Human Corona virus EC50” value in [1] (human corona (SARS) virus) came to 20 ± 5 µg/mL. Besides, the “Feline Corona virus EC50” value with Feline Corona virus was found to be 9.1 ± 0.4 µg/mL. For the same compound, the “EC50 Influenza A H3N2 subtype MTS” value in the data set on Influenza A H3N2 subtype (setting [10]) was above 4 µg/mL. Further, the “EC50 Influenza A H3N2 subtype visual CPE score” value with Influenza A H3N2 subtype (visual scoring of the CPE) was above 4 µg/mL. In addition, the “cytotoxicity (in words)” value with CEM cells was “low cytotoxicity”. Further, in the data set on CEM cells (50% cytostatic concentration, CEM cell proliferation), the CC50 was 81.7 ± 26.0 µg/mL (≈ 121 µM).

For `Nc1ncnc2c1ncn2C[C@H](O)CO` [(S)-DHPA], the EC50 in the data set with Sindbis virus, in the data set on Coxsackie virus B4 and in the data set with Punta Toro virus was above 250 µM throughout.

In the case of `Cc1cc(C)nc(NCc2c(C)c(CNc3cc(C)cc(C)n3)c(C)c(CNc3cc(C)cc(C)n3)c2C)c1` [Compound 3a, 1,3,5-Tris[(4,6-dimethyl-pyridin-2-yl)aminomethyl]-2,4,6-trimethyl-benzene], the melting point fell in the range of 193 to 195 °C. This compound yielded a CC50 in “in vitro” of 2.63 ± 0.08 µg/mL (≈ 5.03 µM). Further, the EC50 in the data set with HIV-2 is above 0.8 µg/mL. In addition, the EC50 in data set [1] came to 1.3 ± 0.2 µg/mL (≈ 2.49 µM). The compound also showed an EC50 in the data set with Feline Corona virus of 0.8 ± 0.6 µg/mL (≈ 1.53 µM). In addition, the EC50 in the data set with HIV-1 [2] is above 0.8 µg/mL.

Take `NC(=O)c1ncn([C@@H]2O[C@H](CO)[C@@H](O)[C@H]2O)n1` [Ribavirin]: the EC50 in data set [3] is 150 µM; in the data set with Para-influenza-3 virus it was 250 µM; with Vaccinia virus, 150 µM; in data set [4], above 250 µM; in the data set on Sindbis virus (Sindbis virus), 250 µM; with Influenza A H1N1 subtype (H1N1, MTS, read-out: EC50 Influenza A H1N1 subtype MTS), 9 µM. In addition, the EC50 in the data set on Influenza A H1N1 subtype (H1N1, visual CPE, read-out: EC50 Influenza A H1N1 subtype visual CPE score) is 8.9 µM; in the data set with Coxsackie virus B4 (Enterovirus B, B4) it was above 250 µM; in the data set with Punta Toro virus (Punta Toro virus), 150 µM; in data set [5], 150 µM; with Influenza A H3N2 subtype (H3N2, MTS, read-out: EC50 Influenza A H3N2 subtype MTS), 8.9 µM; with Influenza A H3N2 subtype (H3N2, visual CPE, read-out: EC50 Influenza A H3N2 subtype visual CPE score) it was 8.9 µM. The EC50 was 150 µM in the data set with Reovirus-1 and 50 µM in data set [6].
